Source: the supplement of paper PMC5908809

Columns and labels:
[1] = test system: normal NK cells expanded with K562-aAPC; experiment: percent inhibition of viability; higher = more inhibition; conditions: 72 h, IL-2 2.5 ng/mL
Description: (§1)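 Drug sensitivity and resistance testing on K562-aAPC-expanded normal NK cells: 5 concentrations (10-fold steps over a 10,000-fold range), 72 h at 37 °C, viability by CellTiter-Glo normalised to DMSO and benzethonium chloride controls; DSS from the fitted curve.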

DERL-7 (IL-2 2.5 ng/mL) [2] = experiment: as above; conditions: 72 h
IMC-1 (IL-2 20 ng/mL) [3] = experiment: as above; conditions: 72 h
KAI3 (IL-2 2.5 ng/mL) [4] = experiment: as above; conditions: 72 h
KHYG-1 (IL-2 2.5 ng/mL) [5] = experiment: as above; conditions: 72 h
NK-92 (IL-2 2.5 ng/mL) [6] = experiment: as above; conditions: 72 h
NK-YS (IL-2 2.5 ng/mL) [7] = experiment: as above; conditions: 72 h
NKL (IL-2 2.5 ng/mL) [8] = experiment: as above; conditions: 72 h
SNK-6 (IL-2 2.5 ng/mL) [9] = experiment: as above; conditions: 72 h
YT (IL-2 2.5 ng/mL) [10] = experiment: as above; conditions: 72 h
[11] = test system: normal primary NK cells, pool 1 (3 donors) (IL-2 2.5 ng/mL); experiment: as above; conditions: 72 h
[12] = test system: normal primary NK cells, pool 1 (3 donors), resting (IL-2 0 ng/mL); experiment: as above; conditions: 72 h
[13] = test system: normal primary NK cells, pool 2 (3 donors) (IL-2 2.5 ng/mL); experiment: as above; conditions: 72 h
[14] = test system: normal primary NK cells, pool 3 (3 donors) (IL-2 2.5 ng/mL); experiment: as above; conditions: 72 h
[15] = test system: normal NK cells expanded with K562-aAPC; experiment: drug sensitivity score (DSS) (DSS units); higher = more sensitive; extreme values may be limits of the assay; conditions: 72 h; IL-2 2.5 ng/mL
Description: as §1

DERL-7 (IL-2 2.5 ng/mL) [16] = experiment: as above; conditions: 72 h
IMC-1 (IL-2 20 ng/mL) [17] = experiment: as above; conditions: 72 h
KAI3 (IL-2 2.5 ng/mL) [18] = experiment: as above; conditions: 72 h
KHYG-1 (IL-2 2.5 ng/mL) [19] = experiment: as above; conditions: 72 h
NK-92 (IL-2 2.5 ng/mL) [20] = experiment: as above; conditions: 72 h
NK-YS (IL-2 2.5 ng/mL) [21] = experiment: as above; conditions: 72 h
NKL (IL-2 2.5 ng/mL) [22] = experiment: as above; conditions: 72 h
SNK-6 (IL-2 2.5 ng/mL) [23] = experiment: as above; conditions: 72 h
YT (IL-2 2.5 ng/mL) [24] = experiment: as above; conditions: 72 h
[25] = test system: normal primary NK cells, pool 1 (3 donors) (IL-2 2.5 ng/mL); experiment: as above; conditions: 72 h
[26] = test system: normal primary NK cells, pool 1 (3 donors), resting (IL-2 0 ng/mL); experiment: as above; conditions: 72 h
[27] = test system: normal primary NK cells, pool 2 (3 donors) (IL-2 2.5 ng/mL); experiment: as above; conditions: 72 h
[28] = test system: normal primary NK cells, pool 3 (3 donors) (IL-2 2.5 ng/mL); experiment: as above; conditions: 72 h

C=CCc1cccc(/C=N/NC(=O)CN2CCN(Cc3ccccc3)CC2)c1O [PAC-1] (max concentration tested 10000 nM)
percent inhibition of viability [%]
Conditions	1 nM	10 nM	100 nM	1000 nM	10000 nM
DERL-7 (IL-2 2.5 ng/mL) [2]	-1.36	2.12	-2.94	12.2	80.9
IMC-1 (IL-2 20 ng/mL) [3]	-3.49	-2.97	1.56	1.88	100
KAI3 (IL-2 2.5 ng/mL) [4]	-5.72	-3.85	4.89	62.6	96.5
KHYG-1 (IL-2 2.5 ng/mL) [5]	-1.19	-1.29	5.59	74.1	104
NK-92 (IL-2 2.5 ng/mL) [6]	-11.7	-11	17.2	50.3	103
NK-YS (IL-2 2.5 ng/mL) [7]	-1.58	-1.32	5.2	5.35	97.7
NKL (IL-2 2.5 ng/mL) [8]	-9.29	8.69	4.48	69.2	97.8
SNK-6 (IL-2 2.5 ng/mL) [9]	10.2	3.22	2.33	48.9	97.7
YT (IL-2 2.5 ng/mL) [10]	-0.7	-1.17	5.18	22.7	99
[1]	-3.35	4.92	2.56	20.9	96.8
[11]	-3.78	-2.13	-1.5	3.37	92.1
[12]	-5.08	-13.3	-0.24	-2.95	89.9
[13]	-14.6	-2.22	5.41	12	86.3
[14]	-13.1	-3.83	0.14	15.8	96

Conditions	drug sensitivity score
DERL-7 (IL-2 2.5 ng/mL) [16]	6.53
IMC-1 (IL-2 20 ng/mL) [17]	5.83
KAI3 (IL-2 2.5 ng/mL) [18]	13
KHYG-1 (IL-2 2.5 ng/mL) [19]	14.7
NK-92 (IL-2 2.5 ng/mL) [20]	12
NK-YS (IL-2 2.5 ng/mL) [21]	6.2
NKL (IL-2 2.5 ng/mL) [22]	13.9
SNK-6 (IL-2 2.5 ng/mL) [23]	11.3
YT (IL-2 2.5 ng/mL) [24]	9.03
[15]	8.67
[25]	5.57
[26]	4.76
[27]	6.79
[28]	7.93

O=C(Nc1cccnc1)N1CCC(Cc2cccc(Oc3ccc(C(F)(F)F)cn3)c2)CC1 [PF-3845] (max concentration tested 10000 nM)
percent inhibition of viability [%]
Conditions	1 nM	10 nM	100 nM	1000 nM	10000 nM
DERL-7 (IL-2 2.5 ng/mL) [2]	3.63	-4.44	5.89	0.51	46.1
IMC-1 (IL-2 20 ng/mL) [3]	0.9	-0.47	4.7	13.8	26.2
KAI3 (IL-2 2.5 ng/mL) [4]	-1.12	-6.82	4.46	0.3	25
KHYG-1 (IL-2 2.5 ng/mL) [5]	-4.25	-6.89	-4.44	4.55	60.7
NK-92 (IL-2 2.5 ng/mL) [6]	-1.76	-21.3	-8.96	4.25	35.6
NK-YS (IL-2 2.5 ng/mL) [7]	4.37	-3.27	0.47	10.5	75
NKL (IL-2 2.5 ng/mL) [8]	-5.58	-15.9	-8.48	16.5	66.2
SNK-6 (IL-2 2.5 ng/mL) [9]	-10	-1.35	-9.77	-1.56	25.3
YT (IL-2 2.5 ng/mL) [10]	-2.27	-9.8	1.6	5.87	44.7
[1]	-4.39	-6.94	-8.54	-9.15	-10
[11]	-3.8	-8.73	-11.2	2.66	64.3
[12]	-8.45	-13.6	-17.7	-4.4	74
[13]	-12.4	3.71	-1.82	-3.09	43.9
[14]	-11.4	-5.5	-11.2	-10.4	19.9

Conditions	drug sensitivity score
DERL-7 (IL-2 2.5 ng/mL) [16]	2.45
IMC-1 (IL-2 20 ng/mL) [17]	2.22
KAI3 (IL-2 2.5 ng/mL) [18]	0.99
KHYG-1 (IL-2 2.5 ng/mL) [19]	4
NK-92 (IL-2 2.5 ng/mL) [20]	2.38
NK-YS (IL-2 2.5 ng/mL) [21]	5.91
NKL (IL-2 2.5 ng/mL) [22]	6.2
SNK-6 (IL-2 2.5 ng/mL) [23]	0.86
YT (IL-2 2.5 ng/mL) [24]	3.29
[15]	0
[25]	3.87
[26]	3.74
[27]	2
[28]	0.32
